In patent US20060069132A1, “Azolecarboxamide herbicides” (priority 2004, published 2006):

Tests used:
[1] = system: blackgrass; assay: Test B postemergence herbicide test; assay type: in vivo, Alopecurus myosuroides
How it was run: (§1)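 Read-out: visual comparison with controls, scored 0 to 100, where 100 means complete control and 0 no effect. Formulated chemicals were applied postemergence to plants 2–18 cm tall (1- to 4-leaf), or to flooded-paddy plants at the 2-leaf stage, then held 13 to 15 days under glass.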

[2] = system: barnyardgrass; assay: Test B flooded paddy test; assay type: in vivo, Echinochloa crus-galli; settings: 1000 g ai/ha, scale 0 to 100 (0 no effect, 100 complete control)
How it was run: as §1

[3] = system: cocklebur; assay: Test B pre-/postemergence herbicide test; assay type: in vivo, Xanthium strumarium
How it was run: (§2)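 Pre: seeds sown, then sprayed. Post: 1–4-leaf plants (2–18 cm) sprayed at the same time. Paddy: flooded, treated at 2-leaf stage. Formulation: non-phytotoxic solvent with surfactant. Greenhouse 13–15 days; visual 0–100 score relative to controls.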

[4] = system: morningglory; assay: Test B pre-/postemergence herbicide test; assay type: in vivo, Ipomoea coccinea
How it was run: as §2

[5] = system: small flower umbrella sedge; assay: Test B flooded paddy test; assay type: in vivo, Cyperus difformis; settings: 1000 g ai/ha, scale 0 to 100 (0 no effect, 100 complete control)
How it was run: as §1

[6] = system: wheat; assay: Test B postemergence herbicide test; assay type: in vivo, Triticum aestivum; parameters: key to Wheat plant response rating: 0 = no effect, 100 = complete control
How it was run: (§3)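 Each value is a visual 0–100 response rating taken against controls 13 to 15 days after treatment in the greenhouse. Plants received formulated chemical postemergence at the 1- to 4-leaf stage or, in flooded paddy, at the 2-leaf stage.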

[7] = system: ducksalad; assay: Test B flooded paddy test; assay type: in vivo, Heteranthera limosa; settings: 1000 g ai/ha, scale 0 to 100 (0 no effect, 100 complete control)
How it was run: as §1

[8] = system: large crabgrass; assay: Test B pre-/postemergence herbicide test; assay type: in vivo, Digitaria sanguinalis
How it was run: (§4)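 Flooded paddy rice and barnyardgrass were treated at the 2-leaf stage; upland plantings received compound either on sown seed or on 1- to 4-leaf seedlings. All were kept 13–15 days in a greenhouse and scored visually, 0–100, relative to untreated plants.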

[9] = system: Surinam grass; assay: Test B pre-/postemergence herbicide test; assay type: in vivo, Urochloa decumbens
How it was run: as §4

[10] = system: giant foxtail; assay: Test B pre-/postemergence herbicide test; assay type: in vivo, Setaria faberi
How it was run: as §4

[11] = system: corn; assay: Test B pre-/postemergence herbicide test; assay type: in vivo, Zea mays
How it was run: as §4

[12] = system: barnyardgrass; assay: Test B pre-/postemergence herbicide test; assay type: in vivo, Echinochloa crus-galli
How it was run: as §2

[13] = system: pigweed; assay: Test B pre-/postemergence herbicide test; assay type: in vivo, Amaranthus retroflexus
How it was run: as §4

[14] = system: wild oat; assay: Test B postemergence herbicide test; assay type: in vivo, Avena fatua
How it was run: as §3

[15] = system: lambsquarters; assay: Test B pre-/postemergence herbicide test; assay type: in vivo, Chenopodium album
How it was run: as §4

[16] = system: rice; assay: Test B flooded paddy test; assay type: in vivo, Oryza sativa; settings: 1000 g ai/ha, scale 0 to 100 (0 no effect, 100 complete control)
How it was run: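 After treating 2-leaf paddy plants or 2–18 cm postemergence plants (1 to 4 leaves) with formulated chemical, researchers kept them in a greenhouse for 13–15 days. Effects were judged visually versus controls: 0 indicates none, 100 total control.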

[17] = postemergence, 125 g ai/ha, visual rating, scale 0 (no effect) to 100 (complete control)
[18] = postemergence, 500 g ai/ha, visual rating, scale 0 (no effect) to 100 (complete control)
[19] = 125 g ai/ha, 0 = no effect, 100 = complete control, preemergence
[20] = 500 g ai/ha, visual rating 0-100, 0 no effect, 100 complete control, preemergence
[21] = Postemergence, 500 g ai/ha, scale 0 (no effect) to 100 (complete control)
[22] = postemergence, 125 g ai/ha, scale 0 to 100
[23] = 125 g ai/ha, 0 is no effect, 100 is complete control, preemergence
[24] = Postemergence, 500 g ai/ha, visual rating after 13 to 15 days, scale 0 (no effect) to 100 (complete control)
[25] = Preemergence, 500 g ai/ha, scale 0 to 100
[26] = preemergence, 125 g ai/ha, 0 to 100 scale, 0 is no effect, 100 is complete control

## CC(=NO)c1cccc(NC(=O)c2sc(C(C)(C)C)nc2C)c1 [Compound 195]
[1]; [17]
  Blackgrass plant response rating: 0
[1]; [18]
  Blackgrass plant response rating: 10
[2]; visual rating, 13 to 15 days
  Barnyardgrass plant response rating: 60
[3]; [19]
  Cocklebur plant response rating (0 to 100 scale): 0
[3]; [20]
  Plant response rating, Cocklebur: 0
[3]; [17]
  Cocklebur plant response rating: 30
[3]; [18]
  Cocklebur plant response rating: 60
[4]; [19]
  Morningglory plant response rating (0 to 100 scale): 10
[4]; [20]
  Plant response rating, Morningglory: 40
[4]; [17]
  Morningglory plant response rating: 0
[4]; [18]
  Morningglory plant response rating: 60
[5]; visual rating, 13 to 15 days
  Sedge, Umbrella plant response rating: 50
[6]; [17]
  Wheat plant response rating: 10
[6]; [18]
  Wheat plant response rating: 20
[7]; visual rating, 13 to 15 days
  Ducksalad plant response rating: 40
[8]; [19]
  Crabgrass, Large plant response rating (0 to 100 scale): 80
[8]; [20]
  Plant response rating, Crabgrass, Large: 100
[8]; [17]
  Crabgrass, Large plant response rating: 20
[8]; [18]
  Crabgrass, Large plant response rating: 50
[9]; [19]
  Surinam Grass plant response rating (0 to 100 scale): 10
[9]; [20]
  Plant response rating, Surinam Grass: 30
[9]; [17]
  Surinam Grass plant response rating: 10
[9]; [18]
  Surinam Grass plant response rating: 30
[10]; [19]
  Foxtail, Giant plant response rating (0 to 100 scale): 20
[10]; [20]
  Plant response rating, Foxtail, Giant: 60
[10]; [17]
  Foxtail, Giant plant response rating: 20
[10]; [18]
  Foxtail, Giant plant response rating: 20
[11]; [19]
  Corn plant response rating (0 to 100 scale): 0
[11]; [20]
  Plant response rating, Corn: 0
[11]; [17]
  Corn plant response rating: 20
[11]; [18]
  Corn plant response rating: 30
[12]; [19]
  Barnyardgrass plant response rating (0 to 100 scale): 40
[12]; [20]
  Plant response rating, Barnyardgrass: 90
[12]; [17]
  Barnyardgrass plant response rating: 40
[12]; [18]
  Barnyardgrass plant response rating: 90
[13]; [19]
  Pigweed plant response rating (0 to 100 scale): 90
[13]; [20]
  Plant response rating, Pigweed: 90
[13]; [17]
  Pigweed plant response rating: 70
[13]; [18]
  Pigweed plant response rating: 80
[14]; [17]
  Oat, Wild plant response rating: 10
[14]; [18]
  Oat, Wild plant response rating: 20
[15]; [19]
  Lambsquarters plant response rating (0 to 100 scale): 0
[15]; [20]
  Plant response rating, Lambsquarters: 80
[15]; [17]
  Lambsquarters plant response rating: 0
[15]; [18]
  Lambsquarters plant response rating: 60
[16]; visual rating, 13 to 15 days
  Rice plant response rating: 30

## C=CCNC(=O)c1cccc(NC(=O)c2nn(C(C)(C)C)nc2CC)c1 [Compound 414]
[1]; [21]
  Blackgrass plant response rating: 50
[1]; [22]
  Blackgrass plant response rating: 40
[2]
  Barnyardgrass plant response rating: 80
[3]; [23]
  Plant response rating (0 to 100 scale), Cocklebur: 20
[3]; [21]
  Cocklebur plant response rating: 70
[3]; [22]
  Cocklebur plant response rating: 60
[4]; [23]
  Plant response rating (0 to 100 scale), Morningglory: 10
[4]; [21]
  Morningglory plant response rating: 70
[4]; [22]
  Morningglory plant response rating: 20
[5]
  Sedge, Umbrella plant response rating: 90
[6]; 500 g ai/ha, scale 0 to 100, 0 no effect, 100 complete control, preemergence
  Wheat plant response rating: 100
[6]; [21]
  Wheat plant response rating: 20
[6]; [22]
  Wheat plant response rating: 10
[7]
  Ducksalad plant response rating: 90
[8]; [23]
  Plant response rating (0 to 100 scale), Crabgrass, Large: 100
[8]; [21]
  Crabgrass, Large plant response rating: 70
[8]; [22]
  Crabgrass, Large plant response rating: 30
[9]; [23]
  Plant response rating (0 to 100 scale), Surinam Grass: 90
[9]; [21]
  Surinam Grass plant response rating: 60
[9]; [22]
  Surinam Grass plant response rating: 20
[10]; [23]
  Plant response rating (0 to 100 scale), Foxtail, Giant: 90
[10]; [21]
  Foxtail, Giant plant response rating: 40
[10]; [22]
  Foxtail, Giant plant response rating: 30
[11]; [23]
  Plant response rating (0 to 100 scale), Corn: 70
[11]; [21]
  Corn plant response rating: 40
[11]; [22]
  Corn plant response rating: 30
[12]; [23]
  Plant response rating (0 to 100 scale), Barnyardgrass: 90
[12]; Postemergence, 125 g ai/ha, scale 0 (no effect) to 100 (complete control)
  Barnyardgrass plant response rating: 30
[12]; [21]
  Barnyardgrass plant response rating: 30
[13]; [23]
  Plant response rating (0 to 100 scale), Pigweed: 100
[13]; [21]
  Pigweed plant response rating: 100
[13]; [22]
  Pigweed plant response rating: 90
[14]; [21]
  Oat, Wild plant response rating: 40
[14]; [22]
  Oat, Wild plant response rating: 30
[15]; [23]
  Plant response rating (0 to 100 scale), Lambsquarters: 100
[15]; [21]
  Lambsquarters plant response rating: 100
[15]; [22]
  Lambsquarters plant response rating: 80
[16]
  Rice plant response rating: 80

## CCCCOC(=O)c1cccc(NC(=O)c2cc(C(C)(C)C)nn2CC)c1 [Compound 86]
[1]; [24]
  Plant response rating, Blackgrass: 20
[1]; [17]
  Blackgrass plant response rating: 10
[2]; visual rating, 13 to 15 days
  Barnyardgrass plant response rating: 30
[3]; [24]
  Plant response rating, Cocklebur: 100
[3]; [25]
  Cocklebur plant response rating: 0
[3]; [17]
  Cocklebur plant response rating: 20
[3]; [26]
  Plant response rating, Cocklebur: 0
[4]; [24]
  Plant response rating, Morningglory: 100
[4]; [17]
  Morningglory plant response rating: 60
[4]; [26]
  Plant response rating, Morningglory: 0
[5]; visual rating, 13 to 15 days
  Sedge, Umbrella plant response rating: 70
[6]; [24]
  Plant response rating, Wheat: 40
[6]; [17]
  Wheat plant response rating: 30
[7]; visual rating, 13 to 15 days
  Ducksalad plant response rating: 20
[8]; [24]
  Plant response rating, Crabgrass, Large: 90
[8]; [25]
  Crabgrass, Large plant response rating: 0
[8]; [17]
  Crabgrass, Large plant response rating: 60
[8]; [26]
  Plant response rating, Crabgrass, Large: 0
[9]; [24]
  Plant response rating, Surinam Grass: 100
[9]; [17]
  Surinam Grass plant response rating: 70
[9]; [26]
  Plant response rating, Surinam Grass: 0
[10]; [24]
  Plant response rating, Foxtail, Giant: 60
[10]; [25]
  Foxtail, Giant plant response rating: 0
[10]; [17]
  Foxtail, Giant plant response rating: 40
[10]; [26]
  Plant response rating, Foxtail, Giant: 0
[11]; [24]
  Plant response rating, Corn: 30
[11]; [25]
  Corn plant response rating: 0
[11]; [17]
  Corn plant response rating: 20
[11]; [26]
  Plant response rating, Corn: 0
[12]; [24]
  Plant response rating, Barnyardgrass: 80
[12]; [25]
  Barnyardgrass plant response rating: 0
[12]; [17]
  Barnyardgrass plant response rating: 50
[12]; [26]
  Plant response rating, Barnyardgrass: 0
[13]; [24]
  Plant response rating, Pigweed: 100
[13]; [17]
  Pigweed plant response rating: 100
[13]; [26]
  Plant response rating, Pigweed: 0
[14]; [24]
  Plant response rating, Oat, Wild: 60
[14]; [17]
  Oat, Wild plant response rating: 30
[15]; [24]
  Plant response rating, Lambsquarters: 90
[15]; [17]
  Lambsquarters plant response rating: 80
[15]; [26]
  Plant response rating, Lambsquarters: 0
[16]; visual rating, 13 to 15 days
  Rice plant response rating: 50
